Experimental data: ChEMBL document CHEMBL4819143, “Discovery of JMJD7 inhibitors with the aid of virtual screening and bioactivity evaluation” (Bioorg Med Chem Lett, 2021)

Columns and labels:
[1] = target: Bifunctional peptidase and (3S)-lysyl hydroxylase JMJD7 (Homo sapiens, UniProt P0C870); assay: Inhibition of N-terminal His-tagged human JMJD7 (1 to 316 residues) expressed in Escherichia coli BL21 (DE3) luciferase based succinate-gloTM JmjC demethylase/hydroxylase assay
SK-BR-3 = assay: Cytotoxicity against human SK-BR-3 cells assessed as growth inhibition measured after 72 hrs by MTT assay; details: SK-BR-3, 72 h
SH-SY5Y = assay: Cytotoxicity against human SH-SY5Y cells assessed as growth inhibition measured after 72 hrs by MTT assay
T47D = assay: Cytotoxicity against human T47D cells assessed as growth inhibition measured after 72 hrs by MTT assay
Jurkat = assay: Cytotoxicity against human Jurkat cells assessed as growth inhibition measured after 72 hrs by MTT assay
HeLa = assay: Cytotoxicity against human HeLa cells assessed as growth inhibition measured after 72 hrs by MTT assay
BJ = assay: Cytotoxicity against human BJ cells assessed as growth inhibition measured after 72 hrs by MTT assay

Bifunctional peptidase and (3S)-lysyl hydroxylase JMJD7, sequence (P0C870 whole entry, the tested form may be a part): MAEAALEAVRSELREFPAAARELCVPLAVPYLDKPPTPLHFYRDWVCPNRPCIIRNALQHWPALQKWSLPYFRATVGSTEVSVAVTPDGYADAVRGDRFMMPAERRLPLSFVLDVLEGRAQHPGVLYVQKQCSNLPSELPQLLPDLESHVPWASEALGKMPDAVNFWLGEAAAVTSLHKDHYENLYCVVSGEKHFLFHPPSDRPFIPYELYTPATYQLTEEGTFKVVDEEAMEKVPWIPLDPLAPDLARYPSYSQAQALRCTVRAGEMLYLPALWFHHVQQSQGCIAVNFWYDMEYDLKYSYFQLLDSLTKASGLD

COc1ccc(CCC(=O)Nc2ccccc2C(=O)O)cc1OC
IC50 [1]: 33.2 µM

CCCNC(=O)c1ccc(-c2nc3ccccc3s2)s1
IC50 [1]: 11 µM

Oc1c(C(Nc2ccccn2)c2ccccc2)ccc2cccnc12 (stereo not given)
IC50 [1]: 31.6 µM

O=C(Oc1ccc([N+](=O)[O-])c2cccnc12)c1ccc(Cl)cc1Cl
IC50 (SK-BR-3): 13.3 µM
IC50 (SH-SY5Y): > 100 µM
IC50 (T47D): 9.4 µM
IC50 (Jurkat): 15 µM
IC50 (HeLa): 16.1 µM
IC50 (BJ): > 100 µM

COc1cccc(-c2ccc(NC(=O)C3=C(C(=O)O)CCC3)c(F)c2)c1 [VIDOFLUDIMUS]
IC50 [1]: 7.16 µM
